The values that follow come from patent US20250213555A1, “SUBSTITUTED TETRAHYDROFURAN ANALOGS AS MODULATORS OF SODIUM CHANNELS” (VERTEX PHARMACEUTICALS INCORPORATED, priority 2021, published 2025).

Structures are written as SMILES. A value given as a limit tells only on which side of the number the result lay.

What is called IC50 is the midpoint of a concentration-inhibition curve.

For the experiment, the target named is human Nav 1.8 (Homo sapiens, UniProt Q9Y5Y9). Kind of experiment: E-VIPR assay detecting and measuring Nav inhibition properties. As to conditions: HEK cells expressing a truncated form of human Nav 1.8; compound numbers without "*" (not marked as run in the presence of human serum); read-out: measured IC50 value in the E-VIPR Assay. The format is cell-based. The method, boiled down: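 Nav inhibition was read by E-VIPR: cells were electrically stimulated while coumarin/oxonol FRET emissions were recorded. Cells were HEK expressing a truncated human Nav 1.8 and co-transduced with KIR2.1, and were assayed in 25% final human serum.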
Sequence of human Nav 1.8 (Q9Y5Y9 126-399 limits assumed): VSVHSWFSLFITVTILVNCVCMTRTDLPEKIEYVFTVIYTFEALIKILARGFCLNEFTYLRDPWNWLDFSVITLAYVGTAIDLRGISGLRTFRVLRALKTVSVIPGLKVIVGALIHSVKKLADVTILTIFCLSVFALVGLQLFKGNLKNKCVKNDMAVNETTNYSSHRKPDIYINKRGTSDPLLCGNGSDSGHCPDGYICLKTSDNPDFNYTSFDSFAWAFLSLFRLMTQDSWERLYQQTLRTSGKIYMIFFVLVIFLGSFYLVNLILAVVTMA
Sequence of human Nav 1.8 (Q9Y5Y9 660-890 limits assumed): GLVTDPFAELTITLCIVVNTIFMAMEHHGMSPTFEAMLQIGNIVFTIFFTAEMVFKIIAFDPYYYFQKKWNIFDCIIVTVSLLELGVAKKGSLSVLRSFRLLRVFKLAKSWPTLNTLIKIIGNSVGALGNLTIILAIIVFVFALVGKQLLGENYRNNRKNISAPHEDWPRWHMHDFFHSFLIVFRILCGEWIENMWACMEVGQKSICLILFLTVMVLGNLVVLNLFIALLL
Sequence of human Nav 1.8 (Q9Y5Y9 1148-1722 limits assumed): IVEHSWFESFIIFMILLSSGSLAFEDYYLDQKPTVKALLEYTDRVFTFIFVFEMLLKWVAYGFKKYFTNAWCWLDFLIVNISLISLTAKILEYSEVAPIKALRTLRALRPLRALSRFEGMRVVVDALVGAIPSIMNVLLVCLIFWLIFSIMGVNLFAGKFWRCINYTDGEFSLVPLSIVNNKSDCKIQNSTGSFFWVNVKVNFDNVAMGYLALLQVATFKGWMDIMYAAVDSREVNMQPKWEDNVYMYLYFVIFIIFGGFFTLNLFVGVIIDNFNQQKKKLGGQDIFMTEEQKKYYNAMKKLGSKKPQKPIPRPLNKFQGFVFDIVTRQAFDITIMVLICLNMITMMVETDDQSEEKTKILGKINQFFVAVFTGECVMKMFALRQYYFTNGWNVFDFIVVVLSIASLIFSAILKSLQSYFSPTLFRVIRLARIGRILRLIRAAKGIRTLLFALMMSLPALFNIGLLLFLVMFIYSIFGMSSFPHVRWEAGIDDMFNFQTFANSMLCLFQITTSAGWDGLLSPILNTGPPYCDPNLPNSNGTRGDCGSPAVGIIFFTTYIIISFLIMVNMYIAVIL
For the compound `COc1c([C@H]2[C@H](C(=O)Nc3ccnc(C(=O)N(C)[C@H]4CNC[C@@H]4OC)c3)O[C@@](C)(C(F)(F)F)[C@H]2C)ccc(F)c1F` [Compound 247, 4-((2R,3S,4S,5R)-3-(3,4-difluoro-2-methoxyphenyl)-4,5-dimethyl-5-(trifluoromethyl)tetrahydrofuran-2-carboxamido)-N-((3S,4S)-4-methoxypyrrolidin-3-yl)-N-methylpicolinamide], the IC50 is under 10 nM.
Then `COc1c([C@H]2[C@H](C(=O)Nc3ccnc(C(=O)N4C[C@H]5CCNC[C@H]54)c3)O[C@@](C)(C(F)(F)F)[C@H]2C)ccc(F)c1F` [Compound 227, (2R,3S,4S,5R)-N-(2-((1S,6R)-3,8-diazabicyclo[4.2.0]octane-8-carbonyl)pyridin-4-yl)-3-(3,4-difluoro-2-methoxyphenyl)-4,5-dimethyl-5-(trifluoromethyl)tetrahydrofuran-2-carboxamide], with under 10 nM; and `COc1c([C@H]2[C@H](C(=O)Nc3ccnc(C(=O)NC4CNC4)c3)O[C@@](C)(C(F)(F)F)[C@H]2C)ccc(F)c1F` [Compound 236, N-(azetidin-3-yl)-4-((2R,3S,4S,5R)-3-(3,4-difluoro-2-methoxyphenyl)-4,5-dimethyl-5-(trifluoromethyl)tetrahydrofuran-2-carboxamido)picolinamide], with 10 to 100 nM.
As for `COCC1(C)CC(c2ccc(F)c(F)c2OC)C(C(=O)Nc2ccnc(C(N)=O)c2)O1` (single isomer, unassigned) [Compound 28], the half-maximal inhibitory concentration (IC50) is 100 to 1000 nM.
As to `C[C@H]1[C@@H](c2ccc(F)c(F)c2OC2CC(C#N)C2)[C@H](C(=O)Nc2ccnc(C(N)=O)c2)O[C@@]1(C)C(F)(F)F` (stereo partly drawn) [Compound 80, 4-((2R,3S,4S,5R)-3-(2-(3-cyanocyclobutoxy)-3,4-difluorophenyl)-4,5-dimethyl-5-(trifluoromethyl)tetrahydrofuran-2-carboxamido)picolinamide], the IC50 was under 10 nM.
With `C[C@H]1[C@@H](c2ccc(F)c(F)c2OCC(=NO)C2CCC2)[C@H](C(=O)Nc2ccnc(C(N)=O)c2)O[C@@]1(C)C(F)(F)F` [Compound 191, 4-((2R,3S,4S,5R)-3-(2-(2-cyclobutyl-2-(hydroxyimino)ethoxy)-3,4-difluorophenyl)-4,5-dimethyl-5-(trifluoromethyl)tetrahydrofuran-2-carboxamido)picolinamide], the IC50 was under 10 nM.
For `COc1c([C@H]2[C@H](C(=O)Nc3ccnc(C(=O)NC[C@@H]4CC(F)(F)CN4C)c3)O[C@@](C)(C(F)(F)F)[C@H]2C)ccc(F)c1F` [Compound 267, N-(((S)-4,4-difluoro-1-methylpyrrolidin-2-yl)methyl)-4-((2R,3S,4S,5R)-3-(3,4-difluoro-2-methoxyphenyl)-4,5-dimethyl-5-(trifluoromethyl)tetrahydrofuran-2-carboxamido)picolinamide], the IC50 lay within 100 to 1000 nM.
Regarding `C[C@H]1[C@@H](c2ccc(F)c(F)c2OCCN2C[C@H]3C[C@@H]2CO3)[C@H](C(=O)Nc2ccnc(C(N)=O)c2)O[C@@]1(C)C(F)(F)F` (relative stereo) [Compound 47, rel-4-((2R*,3S*,4S*,5R*)-3-(2-(2-((1R,4R)-2-oxa-5-azabicyclo[2.2.1]heptan-5-yl)ethoxy)-3,4-difluorophenyl)-4,5-dimethyl-5-(trifluoromethyl)tetrahydrofuran-2-carboxamido)picolinamide], the IC50 was in the range of 10 to 100 nM.
In the case of `COc1c([C@H]2[C@H](C(=O)Nc3ccnc(C(=O)NCCN(C)C)c3)O[C@@](C)(C(F)(F)F)[C@H]2C)ccc(F)c1F` [Compound 271, 4-((2R,3S,4S,5R)-3-(3,4-difluoro-2-methoxyphenyl)-4,5-dimethyl-5-(trifluoromethyl)tetrahydrofuran-2-carboxamido)-N-(2-(dimethylamino)ethyl)picolinamide], the IC50 was under 10 nM.
